Experimental data taken from patent US7396682B2, “Method for cell adhesion and wound healing” (Regen Biotech, Inc., priority 2000, dated 2008).
“Also recorded” adds a separate entry of the source.

Legend:
HCE cells = assay: Inhibition assay of HCE cell adhesion using matrix peptides and reagents; assay type: cell-based, human; conditions: HCE cells preincubated 30 min with reagent; for inhibition of cell adhesion to fibronectin: dishes coated with 10 μg/ml fibronectin; for inhibition of cell adhesion to βig-h3: dishes coated with 10 μg/ml βig-h3
Description: In order to identify cell surface receptors involved in the cell adhesion activity of βig-h3 protein, an inhibition assay was performed using various reagents.
Initially, plastic culture dishes were coated with 10 μg/ml fibronectin, βigh3-WT or βigh3-ΔRGD. HCE cells were preincubated for 30 min in media containing 5 mM EDTA, 100 μg/ml βigh3-WT, 100 μg/ml βigh3-ΔRGD, 1 mM RGD, 1 mM RGE or 100 μg/ml fibronectin, or none of them, and then assayed for cell adhesion as in Example 1.

K562 cells = assay: K562 cell adhesion to coated proteins (hexosaminidase analysis); assay type: cell-based; conditions: 1 hour
Description: For another control experiment, K562 cells, known to express α5, but not α3 integrin, were used. K562 cells were inoculated onto plates coated with βigh3-WT, fibronectin, laminin, or type I collagen and incubated for 1 hour, followed by the hexosaminidase analysis.

[1] = system: Human corneal epithelial (HCE) cells; assay: HCE cell adhesion and spreading assay on protein-coated plates; assay type: cell-based; conditions: HCE cells on coated recombinant protein
Description: Human corneal epithelial (HCE) cells used in this assay were cultured in DMEM ([…], Gibco BRL) supplemented with 15% fetal bovine serum, Gentamicin (40 μg/ml), insulin (5 μg/ml), cholera toxin (0.1 μg/ml) and human epidermal growth factor (hEGF) at 37° C. in 5% CO2.
The cell adhesion assay was performed as follows. First, the recombinant βig-h3 proteins or other extracellular matrix proteins were let to adhere to the bottoms of 96-well microculture plates (Falcon) by incubation at 37° C. for 1 hour and blocked with PBS containing 0.2% BSA. The coated extracellular matrix proteins were human plasma vitronectin (Promega), purified human plasma fibronectin (pFN), chicken collagen types I and II (Chemicon International Inc.), bovine collagen types IV and VI (Chemicon), mouse laminin (Chemicon), and bovine serum albumin (BSA) (Sigma). Cells were trypsinized and suspended in the culture media at a density of 2×10^5 cells/ml. 0.1 ml of the cell suspension was added to each well of the plates coated with the recombinant proteins.
Following incubation at 37° C. for 1 hour, unattached cells were removed by rinsing with PBS. Attached cells were incubated for 1 hour at 37° C. in 50 mM citrate buffer, pH 5.0, containing 3.75 mM p-nitrophenol-N-acetyl 1-β-D-glycosaminide as a hexosaminidase substrate and 0.25% Triton X-100, followed by the addition of 50 mM glycine buffer, pH 10.4, containing 5 mM EDTA to block the enzyme activity. A measurement was made of absorbance at 405 nm in a Multiskan MCC/340 microplate reader.
To determine cell area as an index for cell adhesion activity, 4×10^4 cells were applied to substrates in 48-well culture plates. The attached cells were fixed weith 8% glutaraldehyde (Sigma) and then stained with 0.25% Crystal Violet (Sigma) in 20% methanol. Measurement of cell areas was performed by Image-Pro plus software (Media Cybernetics). Experiments were repeated in triplicate with 200 or 300 measurements per site for each experiment. Data is reported as the mean area at specific time points±standard error of mean.

O=C(O)CN(CCN(CC(=O)O)CC(=O)O)CC(=O)O [EDTA]
inhibition of cell adhesion to fibronectin (HCE cells): significantly inhibited
inhibition of cell adhesion to βig-h3 (HCE cells): significantly inhibited

O=C(O)CN(CCOCCOCCN(CC(=O)O)CC(=O)O)CC(=O)O [EGTA]
inhibition of cell adhesion to fibronectin (HCE cells): partially inhibited
inhibition of cell adhesion to βig-h3 (HCE cells): partially inhibited

RGD peptide: Arg-Gly-Asp peptide used at 1 mM in inhibition assay
inhibition of cell adhesion to fibronectin (HCE cells): significantly inhibited
inhibition of cell adhesion to βig-h3 (HCE cells): significantly inhibited

RGE peptide: RGE peptide used at 1 mM in inhibition assay
inhibition of cell adhesion to βig-h3 (HCE cells): not inhibited

B1: vitronectin: human plasma vitronectin (Promega), coated extracellular matrix protein (protein)
chain: DQESCKGRCTEGFNVDKKCQCDELCSYYQSCCTDYTAECKPQVTRGDVFTMPEDEYTVYDDGEEKNNATVHEQVGGPSLTSDLQAQSKGNPEQTPVLKPEEEAPAPEVGASKPEGIDSRPETLHPGRPQPPAEEELCSGKPFDAFTDLKNGSLFAFRGQYCYELDEKAVRPGYPKLIRDVWGIEGPIDAAFTRINCQGKTYLFKGSQYWRFEDGVLDPDYPRNISDGFDGIPDNVDAALALPAHSYSGRERVYFFKGKQYWEYQFQHQPSQEECEGSSLSAVFEHFAMMQRDSWEDIFELLFWGRTSAGTRQPQFISRDWHGVPGQVDAAMAGRIYISGMAPRPSLAKKQRFRHRNRKGYRSQRGHSRGRNQNSRRPSRATWLSLFSSEESNLGANNYDDYRMDWLVPATCEPIQSVFFFSGDKYYRVNLRTRRVDTVDPPYPRSIAQYWLGCPAPGHL
adhesion of K562 cells to coated protein (K562 cells): adhered

B2: βig-h3 D-II: recombinant polypeptide, 2nd fas-1 domain of βig-h3, amino acids 237-377 (SEQ ID NO:24) (protein)
chain: STITNNIQQIIEIEDTFETLRAAVAASGLNTMLEGNGQYTLLAPTNEAFEKIPSETLNRILGDPEALRDLLNNHILKSAMCAEAIVAGLSVETLEGTTLEVGCSGDMLTINGKAIISNKDILATNGVIHYIDELLIPDSAK
modifications: left off: small tags and cut ends
HCE cell adhesion activity [1]: equally active compared to the wild type βig-h3; also recorded: high cell attachment activity
